We go through eleven compounds from patent publication US11168073B2, “3,3-difluoroallylamines or salts thereof and pharmaceutical compositions comprising the same” (YUHAN CORPORATION, priority 2018, dated 2021).

Usually IC50 stands for the concentration that gives 50% inhibition.

Where a name gives a salt, the structure may show the parent alone. Read-outs that look alike come from different tables or passages of the source. Bounds are passed on as bounds.

What all share (assay type): biochemical
Assay [1] has as its target T1, recombinant human MAO-A (monoamine oxidase-A) (Homo sapiens, UniProt P21397).
T1 construct: purchased Sigma-Aldrich
T1 sequence (P21397 1-527): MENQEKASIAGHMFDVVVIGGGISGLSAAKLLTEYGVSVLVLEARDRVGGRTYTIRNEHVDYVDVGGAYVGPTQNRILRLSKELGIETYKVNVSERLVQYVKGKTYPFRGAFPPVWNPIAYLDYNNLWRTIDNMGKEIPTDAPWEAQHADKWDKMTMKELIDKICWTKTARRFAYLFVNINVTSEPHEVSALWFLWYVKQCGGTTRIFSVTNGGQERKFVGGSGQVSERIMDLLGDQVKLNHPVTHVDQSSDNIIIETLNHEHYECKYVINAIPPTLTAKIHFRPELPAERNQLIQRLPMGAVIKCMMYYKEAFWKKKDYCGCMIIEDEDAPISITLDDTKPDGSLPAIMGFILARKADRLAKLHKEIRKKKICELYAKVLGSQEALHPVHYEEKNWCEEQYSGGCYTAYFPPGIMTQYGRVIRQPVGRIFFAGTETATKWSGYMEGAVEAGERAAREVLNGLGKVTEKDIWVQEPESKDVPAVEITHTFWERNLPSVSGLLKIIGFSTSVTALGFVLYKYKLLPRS
In words: Activity evaluation on recombinant human MAO-A (Amplex Red/HRP-coupled assay, 0.5 mM tyramine substrate). The conditions noted are these: read-out: Inhibitory Activity (IC50, nM) MAO-A. The gist of the method:
(§1)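 Compounds preincubated 30 min at 37 °C with enzyme in 50 mM sodium phosphate pH 7.4 (final DMSO <1%, 8-point 1:3 dilutions); reaction started with 200 uM Amplex Red, 1 U/mL HRP and substrate (MAO-A 0.5 mM tyramine, MAO-B 1 mM benzylamine, DAO 1 mM putrescine). Resorufin fluorescence (ex 544/em 590 nm) followed over 1-2 h; IC50 from four-parameter logistic fit.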

Assay [2] deals with T2, recombinant human MAO-B (monoamine oxidase-B) (Homo sapiens, UniProt P27338).
T2 construct: purchased Sigma-Aldrich
T2 sequence (P27338 1-520): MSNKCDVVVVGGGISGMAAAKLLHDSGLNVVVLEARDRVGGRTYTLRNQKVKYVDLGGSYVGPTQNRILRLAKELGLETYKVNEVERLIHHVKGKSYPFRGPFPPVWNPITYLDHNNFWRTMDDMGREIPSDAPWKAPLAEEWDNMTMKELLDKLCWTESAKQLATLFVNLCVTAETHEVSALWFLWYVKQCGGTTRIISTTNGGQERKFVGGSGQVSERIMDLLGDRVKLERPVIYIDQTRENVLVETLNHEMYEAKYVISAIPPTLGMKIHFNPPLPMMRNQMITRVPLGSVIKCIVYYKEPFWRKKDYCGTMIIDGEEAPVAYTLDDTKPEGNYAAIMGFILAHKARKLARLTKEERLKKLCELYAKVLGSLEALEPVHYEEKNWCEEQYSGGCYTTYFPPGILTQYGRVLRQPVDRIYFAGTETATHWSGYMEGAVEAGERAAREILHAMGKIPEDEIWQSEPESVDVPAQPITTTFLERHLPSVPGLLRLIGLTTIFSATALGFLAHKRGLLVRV
In words: Activity evaluation on recombinant human MAO-B (Amplex Red/HRP-coupled assay, 1 mM benzylamine substrate). Conditions: read-out: Inhibitory Activity (IC50, nM) MAO-B. The gist of the method:
as §1

Assay [3] has as its target T3, recombinant human VAP-1 (Homo sapiens, UniProt Q16853).
T3 construct: purchased R&D systems
T3 sequence (Q16853 1-763): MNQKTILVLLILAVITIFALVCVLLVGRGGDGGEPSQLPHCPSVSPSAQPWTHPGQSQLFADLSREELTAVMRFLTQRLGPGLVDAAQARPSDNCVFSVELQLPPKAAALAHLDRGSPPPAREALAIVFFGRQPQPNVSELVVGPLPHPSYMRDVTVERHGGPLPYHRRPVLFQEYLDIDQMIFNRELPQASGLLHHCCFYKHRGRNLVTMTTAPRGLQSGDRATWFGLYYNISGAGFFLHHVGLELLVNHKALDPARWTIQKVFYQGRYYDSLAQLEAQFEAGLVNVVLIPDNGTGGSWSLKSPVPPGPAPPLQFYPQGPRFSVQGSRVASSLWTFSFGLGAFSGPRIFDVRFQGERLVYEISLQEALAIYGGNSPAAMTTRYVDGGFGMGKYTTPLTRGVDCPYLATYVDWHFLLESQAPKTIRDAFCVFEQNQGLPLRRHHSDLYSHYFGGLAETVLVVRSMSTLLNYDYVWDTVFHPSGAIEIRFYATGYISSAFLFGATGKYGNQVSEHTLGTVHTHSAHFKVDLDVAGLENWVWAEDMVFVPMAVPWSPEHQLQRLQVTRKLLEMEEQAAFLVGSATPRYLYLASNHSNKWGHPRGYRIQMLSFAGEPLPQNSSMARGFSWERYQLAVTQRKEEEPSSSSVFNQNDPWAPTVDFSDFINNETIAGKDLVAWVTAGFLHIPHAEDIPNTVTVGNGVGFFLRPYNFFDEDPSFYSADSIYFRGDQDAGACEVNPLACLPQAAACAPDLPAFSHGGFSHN
In words: Activity evaluation on recombinant human VAP-1 (Amplex Red/HRP-coupled hydrogen peroxide assay, benzylamine substrate). Conditions: read-out: Inhibitory Activity (IC50, nM) human VAP-1. The method in brief: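 Recombinant human VAP-1 in 50 mM sodium phosphate pH 7.4 preincubated 30 min at 37 °C with compound (8-point 1:3 series, <1% DMSO), then 1 mM benzylamine, 200 uM Amplex Red, 1 U/mL HRP added. H2O2-derived resorufin fluorescence (ex 544/em 590) followed 1–2 h; IC50 from four-parameter fit of rate inhibition.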

The target of assay [4] is T4, recombinant human DAO (diamine oxidase) (Homo sapiens, UniProt P19801).
T4 construct: purchased R&D systems
T4 sequence (P19801 20-751): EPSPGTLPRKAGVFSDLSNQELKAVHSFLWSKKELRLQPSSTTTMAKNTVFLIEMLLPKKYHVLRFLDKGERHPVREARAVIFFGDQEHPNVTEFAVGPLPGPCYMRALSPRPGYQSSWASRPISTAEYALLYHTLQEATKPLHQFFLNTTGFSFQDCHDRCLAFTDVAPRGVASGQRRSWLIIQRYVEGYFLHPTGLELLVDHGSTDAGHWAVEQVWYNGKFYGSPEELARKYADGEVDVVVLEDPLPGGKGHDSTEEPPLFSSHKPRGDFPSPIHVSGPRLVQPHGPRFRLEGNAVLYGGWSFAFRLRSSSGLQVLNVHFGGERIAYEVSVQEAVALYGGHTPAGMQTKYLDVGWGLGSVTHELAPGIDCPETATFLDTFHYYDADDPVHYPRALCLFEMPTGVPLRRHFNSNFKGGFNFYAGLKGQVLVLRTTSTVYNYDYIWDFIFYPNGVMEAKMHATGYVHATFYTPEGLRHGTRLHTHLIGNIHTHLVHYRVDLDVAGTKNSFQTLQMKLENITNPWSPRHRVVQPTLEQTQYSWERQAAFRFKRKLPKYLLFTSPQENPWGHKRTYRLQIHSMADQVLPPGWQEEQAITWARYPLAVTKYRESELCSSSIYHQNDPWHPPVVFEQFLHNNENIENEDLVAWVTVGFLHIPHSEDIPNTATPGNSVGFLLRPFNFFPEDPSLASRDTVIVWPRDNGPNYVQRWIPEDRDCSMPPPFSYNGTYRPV
In words: Activity evaluation on recombinant human DAO (Amplex Red/HRP-coupled assay, 1 mM putrescine substrate). Conditions: read-out: Inhibitory Activity (IC50, nM) DAO. The gist of the method:
as §1

Where [5] appears, read: recombinant human VAP-1, 30 min preincubation at 37° C., 1 mM benzylamine.
Setting [6] is: recombinant human VAP-1, benzylamine substrate.

Regarding `CS(=O)(=O)c1ccc(-c2ccc(CCn3cnn(CC(CN)=C(F)F)c3=O)s2)cc1` [Example 173, 2-[2-(aminomethyl)-3,3-difluoro-allyl]-4-[2-[5-(4-methylsulfonylphenyl)-2-thienyl]ethyl]-1,2,4-triazol-3-one trifluoroacetate], the IC50 in assay [1] (0.5 mM tyramine) is above 100000 nM; in assay [2] (1 mM benzylamine), 69000 nM; in assay [3] (setting [5]), 0.3 nM; in assay [4] (1 mM putrescine) it was 260 nM.

On to `CS(=O)(=O)c1ccc(-c2ccc(Cn3cnn(CC(CN)=C(F)F)c3=O)s2)cc1` [Example 101, 2-[2-(aminomethyl)-3,3-difluoro-allyl]-4-[[5-(4-methylsulfonylphenyl)-2-thienyl]methyl]-1,2,4-triazol-3-one Trifluoroacetate], for which the IC50 is above 100000 nM in assay [1] (0.5 mM tyramine), 67000 nM in assay [2] (1 mM benzylamine), 0.3 nM in assay [3] (setting [5]) and 21000 nM in assay [4] (1 mM putrescine).

Take `NCC(Cn1ncn(Cc2ccc(-c3ccc4c(c3)C(=O)NCC4)s2)c1=O)=C(F)F` [Example 132, 7-[5-[[1-[2-(aminomethyl)-3,3-difluoro-allyl]-5-oxo-1,2,4-triazol-4-yl]methyl]-2-thienyl]-3,4-dihydro-2H-isoquinolin-1-one Trifluoroacetate]: the IC50 in assay [1] (0.5 mM tyramine) is above 100000 nM; in assay [2] (1 mM benzylamine), above 100000 nM; in assay [3] (setting [5]), 0.2 nM; in assay [4] (1 mM putrescine) it was above 100000 nM.

Consider `Cc1cc(C#Cc2cnn(C)c2)cnc1-n1cnn(CC(CN)=C(F)F)c1=O` [Example 240, 2-[2-(aminomethyl)-3,3-difluoro-allyl]-4-[3-methyl-5-[2-(1-methylpyrazol-4-yl)ethynyl]-2-pyridyl]-1,2,4-triazol-3-one trifluoroacetate], for which the IC50 was above 100000 nM in assay [1] (0.5 mM tyramine substrate), 15000 nM in assay [2] (1 mM benzylamine substrate), 1 nM in assay [3] (setting [6]) and 30000 nM in assay [4] (1 mM putrescine substrate).

Consider `CCn1cc(-c2cccc(-n3cnn(CC(CN)=C(F)F)c3=O)c2)cn1` [Example 23, 2-[2-(aminomethyl)-3,3-difluoro-allyl]-4-[3-(1-ethylpyrazol-4-yl)phenyl]-1,2,4-triazol-3-one Trifluoroacetate], for which the IC50 in assay [1] (0.5 mM tyramine) is above 100000 nM; in assay [2] (1 mM benzylamine), above 100000 nM; in assay [3] (setting [5]), 3.1 nM; in assay [4] (1 mM putrescine), 8400 nM.

On to `Cc1c(-c2ccc3c(c2)CCC(=O)N3C)cccc1-n1cnn(CC(CN)=C(F)F)c1=O` [Example 259, 6-[3-[1-[2-(aminomethyl)-3,3-difluoro-allyl]-5-oxo-1,2,4-triazol-4-yl]-2-methyl-phenyl]-1-methyl-3,4-dihydroquinolin-2-one Trifluoroacetate], for which the IC50 in assay [1] (0.5 mM tyramine substrate) is above 100000 nM; in assay [2] (1 mM benzylamine substrate), above 100000 nM; in assay [3] (setting [6]), 1.3 nM; in assay [4] (1 mM putrescine substrate) it was above 100000 nM.

For the compound `NCC(Cn1ncn(Cc2ccc(-c3cc(F)c4c(c3)CCC(=O)N4)s2)c1=O)=C(F)F` [Example 136, 6-[5-[[1-[2-(aminomethyl)-3,3-difluoro-allyl]-5-oxo-1,2,4-triazol-4-yl]methyl]-2-thienyl]-8-fluoro-3,4-dihydro-1H-quinolin-2-one Trifluoroacetate], the IC50 is above 100000 nM in assay [1] (0.5 mM tyramine), above 100000 nM in assay [2] (1 mM benzylamine), 0.4 nM in assay [3] (setting [5]) and above 100000 nM in assay [4] (1 mM putrescine).

As to `CS(=O)(=O)c1ccc(-c2cccc(-n3cnn(CC(CN)=C(F)F)c3=O)n2)cc1` [Example 46, 2-[2-(aminomethyl)-3,3-difluoro-allyl]-4-[6-(4-methylsulfonylphenyl)-2-pyridyl]-1,2,4-triazol-3-one Trifluoroacetate], the IC50 in assay [1] (0.5 mM tyramine) was above 100000 nM; in assay [2] (1 mM benzylamine), above 100000 nM; in assay [3] (setting [5]), 0.9 nM; in assay [4] (1 mM putrescine), 190 nM.

With `CS(=O)(=O)c1ccc(-c2ccnc(-n3cnn(CC(CN)=C(F)F)c3=O)c2)cc1` [Example 54, 2-[2-(aminomethyl)-3,3-difluoro-allyl]-4-[4-(4-methylsulfonylphenyl)-2-pyridyl]-1,2,4-triazol-3-one Trifluoroacetate], the IC50 in assay [1] (0.5 mM tyramine) was above 100000 nM; in assay [2] (1 mM benzylamine), above 100000 nM; in assay [3] (setting [5]), 4.9 nM; in assay [4] (1 mM putrescine), 480 nM.

As for `Cc1cc(-c2cccc(N3CCNCC3)c2)cnc1-n1cnn(CC(CN)=C(F)F)c1=O` [Example 235, 2-[2-(aminomethyl)-3,3-difluoro-allyl]-4-[3-methyl-5-(3-piperazin-1-ylphenyl)-2-pyridyl]-1,2,4-triazol-3-one Ditrifluoroacetate], the IC50 was above 100000 nM in assay [1] (0.5 mM tyramine substrate), 840 nM in assay [2] (1 mM benzylamine substrate), 1.4 nM in assay [3] (setting [6]) and above 100000 nM in assay [4] (1 mM putrescine substrate).

On to `NCC(Cn1ncn(-c2ccc(-c3ccc(C(F)(F)F)nc3)c(F)c2)c1=O)=C(F)F` [Example 26, 2-[2-(aminomethyl)-3,3-difluoro-allyl]-4-[3-fluoro-4-[6-(trifluoromethyl)-3-pyridyl]phenyl]-1,2,4-triazol-3-one Trifluoroacetate], for which the IC50 is above 100000 nM in assay [1] (0.5 mM tyramine), 180 nM in assay [2] (1 mM benzylamine), 0.7 nM in assay [3] (setting [5]) and 71 nM in assay [4] (1 mM putrescine).
